The values below come from publication PMC13334477 (RSC Medicinal Chemistry, 2026).

Several values for one entry are separate records, joined by “and”; a condition that tells them apart may be missing. Equal values may be shown once. Read-outs that look alike come from different tables or passages of the source.

Assay [1] concerns DK100 (DNA, duplex) CGCGGGCCCGCG
Put plainly: native ESI-MS. Particulars: 100 mM ammonium acetate (NH4+), no K+, apparent, 10 μM DNA, 20 μM ligand, 4 °C incubation.

Assay [2] addresses TG4T DNA G4 (parallel). Briefly: Native ESI-MS, TG4T. The format is binding. Particulars: 10 μM DNA, 20 μM ligand, 100 mM ammonium acetate. On the procedure:
(§1) Oligonucleotides were purchased lyophilized and RP-cartridge purified from Eurogentec (Kanaka Eurogentec, Seraing, Belgium), then buffer exchanged with ammonium acetate (5 M; Sigma-Aldrich, Saint-Quentin-Fallavier, France) using Amicon Ultra (3 K cut-off; Merck Millipore, Cork, Ireland). The concentrations of the initial stock solutions of DNA/RNA (∼1 mM) were measured by UV absorbance at 260 nm. Sample solutions were prepared by diluting the appropriate volume of oligonucleotide stock solutions to reach 10 μM of DNA/RNA and 20 μM of ligand, in 100 mM ammonium acetate. The solutions were incubated for 16 h at 4 °C before analysis by mass spectrometry. […] These parameters ensured a good signal intensity without disrupting noncovalent complexes, which was verified using d[G4T4G4]2 as a control. The presented spectra of all DNA/RNA used in this work (Fig. 5, S9 and S10) result from 8 min accumulations. The abundance of each species, M, M + 1L, M + 2L and M + 3L complexes, where M is a monomer oligonucleotide and L is a ligand, was determined from their peak area signals (A), from the sum of the −4, −5 and −6 charge states for DNA and from the sum of the −5, −6 and −7 charge states for RNA, assuming that their response factors are equal. The molar concentrations were then calculated knowing the total amount of oligonucleotide [M]tot: [drawing 1] [drawing 2] [drawing 3] [drawing 4] The concentration of the free ligand, [L]free, was determined from its total concentration [L]tot:[L]free = [L]tot − [M + 1L] − 2[M + 2L] − 3[M + 3L]Apparent consecutive dissociation constants (Kd1, Kd2 and Kd3) were calculated by using the following equations: [drawing 5] [drawing 6] [drawing 7]
(§2) We further analysed the formation of the DBA/G4 complexes by native electrospray ionization mass spectrometry (ESI-MS). We initially attempted to analyze DBA binding to the primary G4 targets from HIV-1 (HIVpro1, HIVpro2, LTR4 and rLTR4 RNA). […] These sequences span the major G4 topological classes and provide a representative assessment of DBA binding across diverse G4 architectures. We also included two DNA duplex controls (DK100 and DK66) to evaluate binding selectivity. This ESI-MS approach enables direct determination of binding stoichiometry, quantification of each species in solution, and calculation of dissociation constants (Kd) from the relative abundances of free and bound forms.[88,97]
(§3) In the ESI-MS conditions, the rLTR4 G4 (10 μM) forms a dimeric structure. […] Among the six DNA and RNA tested here (Fig. 5B, S9 and S10) only rLTR4 presented 1 : 3 G4/DBA complexes. In all cases but one, the 1 : 1 stoichiometry represents the major species in solution while for rLTR4 it is the 1 : 2 (green). […] For TG4T tetramolecular G4 or G4T4G4 bimolecular G4 only 1 : 1 and 1 : 2 complexes were detected (Fig. S9A and S10A). […] The weakest binding was obtained for the G4T4G4 antiparallel G4 and Htel sequence with Kd1s ranging from 11 μM for to 500 μM (Table 2).

In assay [3] the test system is LTR4-FT (parallel DNA G4). Put plainly: FRET melting assay, LTR4-FT. Particulars: ligand 1 μM, DNA 0.2 μM. Format: binding, HIV-1. On the procedure:
(§4) Doubly labelled oligonucleotides with fluorescein and TAMRA were purchased lyophilized and RP-cartridge purified from Eurogentec (Kanaka Eurogentec, Seraing, Belgium). FRET melting experiments were run on Stratagene Mx3005P real-time PCR equipment in 96-well plates on the DNA sequences listed Table 1. Experiments were performed in 10 mM lithium cacodylate buffer (pH 7.2) and 10 mM KCl and 90 mM LiCl as previously described.[45,46] The DNA concentration was 0.2 μM. The stabilization (ΔT1/2) induced by compounds was calculated as the difference between the Tm of the nucleic acid alone and that measured with a ligand concentration of 1 μM. Data are presented as averages of three independent measurements, each conducted in duplicate (λexc = 492 nm, λem = 516 nm, T interval = 25–95 °C, ramp: 25 °C for 5 min, then 1 °C min^−1, measurements every 1 °C, 8× magnification of the fluorescence signal). The G4 selectivity of the ligands with respect to the duplex was evaluated by determining the Tm values in the presence of 0, 3 or 10 μM of the duplex competitor ds26.
(§5) In this assay, we performed thermal denaturation experiments by heating and recording the fluorescence of DNA oligonucleotides doubly labelled with fluorescein and TAMRA fluorophores (Fig. 3 and S7). Ligand binding to the G4 stabilises the structure, resulting in an increase in the half-dissociation temperature of the structure (ΔT1/2). As a first approximation, the higher the ΔT1/2 (ΔT1/2 higher), the higher the affinity of the ligand for the target.[45]
(§6) The fluorescently labeled oligonucleotides were dissolved at a concentration of 0.2 μM in 10 mM lithium cacodylate buffer (pH 7.2) with 10 mM KCl and 90 mM LiCl. […] E) Radar plot representation that summarizes the FRET-melting results (ΔT1/2 (°C)) for each ligand in the presence of HIVpro1-FT (green), HIVpro2-FT (grey), LTR4-FT (bleu), and Htel-FT (red). Data are the results of at least three independent experiments in which each data point was performed in duplicate.

Assay [4] addresses Htel DNA G4 (human telomeric). Briefly: Native ESI-MS, Htel. The format is binding. The following applies: 10 μM DNA, 20 μM ligand, 100 mM ammonium acetate. On the procedure:
as §1, §2, §3

For assay [5], the target named is rLTR4 RNA G4. Briefly: Native ESI-MS, rLTR4. The following applies: 10 μM RNA, 20 μM ligand, 100 mM ammonium acetate. Format: binding, HIV-1. On the procedure: as §1, §2, §3
The target of assay [6] is DK100 DNA duplex. Briefly: Native ESI-MS, DK100. Particulars: 10 μM DNA, 20 μM ligand, 100 mM ammonium acetate. Format: binding. On the procedure:
as §1, §2, §3

For assay [7], the system named is HIV-1. Put plainly: microbe, parasite or virus in culture. Particulars: Human immunodeficiency virus 1, HeLaP4, read-out: IC50 (infectivity inhibition), native HIV-1, MOI 1, compound added 30 min before infection, 24 h, β-gal reporter.
The test system of assay [8] is HIVpro2-FT (hybrid DNA G4). Put plainly: FRET melting assay, HIVpro2-FT. Particulars: ligand 1 μM, DNA 0.2 μM. The format is binding, HIV-1. On the procedure: as §4, §5, §6
Assay [9] has as its target DK66 DNA duplex. Put plainly: Native ESI-MS, DK66. Format: binding. Particulars: 10 μM DNA, 20 μM ligand, 100 mM ammonium acetate. On the procedure:
as §1, §2, §3

What is called IC50 is the concentration needed to halve the response being measured. `COc1ccc2c(ccc3c2cc2c4ccc(OC)cc4ccc2[n+]3-c2ccccc2)c1` [DBA1]: in [1] (almost no complex detected), the Kd1 amounted to 1027.52 µM. Also, the Kd was 14.7 µM in assay [2] (read-out: Kd1 TG4T); 46 µM in assay [2] (read-out: Kd2 TG4T); 497 µM in assay [4] (read-out: Kd1 Htel); 103 µM in [4] (read-out: Kd2 Htel); 20.2 µM in assay [5] (read-out: Kd1 rLTR4); 0.55 µM in [5] (read-out: Kd2 rLTR4). Besides, the Kd is 22.8 µM in assay [5] (read-out: Kd3 rLTR4), 1030 µM in assay [6] (read-out: Kd1 DK100) and 4830 µM in assay [9] (read-out: Kd1 DK66). For the same compound, the figures for the “ΔT1/2 LTR4” value in assay [3] (+10µM ds26) and in assay [3] (No ds26) were 10±0.5 °C and 11±0.2 °C, respectively. Moreover, the half-maximal inhibitory concentration (IC50) in assay [7] came to 0.9 µM. Besides, the results for the “ΔT1/2 HIVpro2” value in [8] (+10µM ds26) and in assay [8] (No ds26) were 3.3±0.4 °C and 4.2±1.4 °C, respectively.
On to `COC(=O)c1ccc(-[n+]2c3ccc4cc(OC)ccc4c3cc3c4ccc(OC)cc4ccc32)cc1` [DBA2], for which the Kd1 in [1] (almost no complex detected) stood at 833.14 µM. The Kd came out at 6.09 µM in [2] (read-out: Kd1 TG4T); 25.9 µM in [2] (read-out: Kd2 TG4T); 41.1 µM in [4] (read-out: Kd1 Htel); 35.3 µM in assay [4] (read-out: Kd2 Htel); 10.9 µM in assay [5] (read-out: Kd1 rLTR4); 0.69 µM in assay [5] (read-out: Kd2 rLTR4). The Kd stood at 833 µM in assay [6] (read-out: Kd1 DK100) and 712 µM in [9] (read-out: Kd1 DK66). Also, the figures for the “ΔT1/2 LTR4” value in assay [3] (+10µM ds26) and in assay [3] (No ds26) were 7.3±0.4 °C and 9.4±0.3 °C, respectively. For the same compound, the IC50 in assay [7] came to 3.1 µM. The “ΔT1/2 HIVpro2” value in assay [8] (+10µM ds26) is 2.0±0.4 °C; in assay [8] (No ds26), 2.1±0.2 °C and 2.1 °C.
Consider `COc1ccc(-[n+]2c3ccc4cc(OC)ccc4c3cc3c4ccc(OC)cc4ccc32)cc1` [DBA3], for which the Kd1 in [1] (site 1 of 2, almost no complex) is 155.63 µM. The Kd in [2] (read-out: Kd1 TG4T) turned out to be 13.6 µM; in [2] (read-out: Kd2 TG4T), 52.2 µM; in [4] (read-out: Kd1 Htel), 52.4 µM; in assay [4] (read-out: Kd2 Htel), 27.2 µM; in assay [5] (read-out: Kd1 rLTR4), 12.2 µM; in assay [5] (read-out: Kd2 rLTR4), 0.14 µM. In addition, the Kd in assay [5] (read-out: Kd3 rLTR4) amounted to 31 µM; in [6] (read-out: Kd1 DK100), 156 µM; in assay [6] (read-out: Kd2 DK100) it was 618 µM; in assay [9] (read-out: Kd1 DK66) it was 1070 µM. Also, the “ΔT1/2 LTR4” value came out at 10.2±0.3 °C in [3] (+10µM ds26) and 10.6±0.7 °C in assay [3] (No ds26). Moreover, in assay [7], the IC50 was found to be 4.3 µM. Further, the “ΔT1/2 HIVpro2” value was 3.8±0.6 °C in assay [8] (+10µM ds26); 3.5±0.2 °C and 3.5 °C in assay [8] (No ds26).
As for `COc1ccc2c(ccc3c2cc2c4ccc(OC)cc4ccc2[n+]3-c2ccc([N+](=O)[O-])cc2)c1` [DBA4], the Kd1 in [1] (site 1 of 2) came to 38.42 µM. In addition, the Kd in [2] (read-out: Kd1 TG4T) turned out to be 5.42 µM; in assay [2] (read-out: Kd2 TG4T), 22.7 µM; in assay [4] (read-out: Kd1 Htel), 11.2 µM; in [4] (read-out: Kd2 Htel), 55.6 µM; in assay [5] (read-out: Kd1 rLTR4), 10.4 µM; in assay [5] (read-out: Kd2 rLTR4) it was 0.5 µM. Besides, the Kd was 21.3 µM in assay [5] (read-out: Kd3 rLTR4), 142 µM in [6] (read-out: Kd2 DK100), 165 µM in assay [9] (read-out: Kd1 DK66) and 308 µM in assay [9] (read-out: Kd2 DK66). Further, the “ΔT1/2 LTR4” value was 10±0.7 °C in assay [3] (+10µM ds26); 11±0.5 °C and 11 °C in assay [3] (No ds26). Besides, the IC50 in assay [7] worked out at 1 µM. For the same compound, the “ΔT1/2 HIVpro2” value in assay [8] (+10µM ds26) is 3.0±0.8 °C; in assay [8] (No ds26) it was 3.8±0.3 °C and 3.8 °C.
For `c1ccc(-[n+]2c3ccc4ccccc4c3cc3c4ccccc4ccc32)cc1` [DBA5], the Kd1 in [1] (site 1 of 2) came out at 40.04 µM. Further, the Kd in [2] (read-out: Kd1 TG4T) stood at 21.6 µM; in assay [2] (read-out: Kd2 TG4T) it was 89.4 µM; in [4] (read-out: Kd1 Htel), 14.5 µM; in [4] (read-out: Kd2 Htel) it was 24.7 µM; in assay [5] (read-out: Kd1 rLTR4), 4.99 µM; in assay [5] (read-out: Kd2 rLTR4) it was 10 µM. Besides, the Kd is 1.47 µM in assay [5] (read-out: Kd3 rLTR4); 40 µM in assay [6] (read-out: Kd1 DK100); 67.7 µM in assay [6] (read-out: Kd2 DK100); 75.4 µM in assay [9] (read-out: Kd1 DK66); 117 µM in assay [9] (read-out: Kd2 DK66). In assay [3] (+10µM ds26), the “ΔT1/2 LTR4” value amounted to 6.0±1.3 °C. For the same compound, the entries for the “ΔT1/2 HIVpro2” value in assay [8] (+10µM ds26) and in [8] (No ds26) were 1.7±0.9 °C and 1.9±0.1 °C, respectively.
